Patent US20210353593A1 (Chinook Therapeutics, Inc., priority 2019, published 2021)
“Also recorded” adds a separate entry of the source.

Assays:
[1] = system: hallmark gene sets in kidney tissue of g-ddY mice; experiment: Gene Set Enrichment Analysis (GSEA) of hallmark gene sets, g-ddY mouse kidney RNA-seq; format: in vivo
ET-1 stimulated HRMC = experiment: Hallmark gene set enrichment in ET-1 stimulated HRMC treated with atrasentan; format: cell-based, human; details: atrasentan at 1 nM and 25 nM
g-ddY mice = experiment: Albuminuria (UACR) in g-ddY mouse model of IgA nephropathy; format: in vivo
Description: The grouped ddY (g-ddY) mouse is a spontaneous model of early-onset IgA nephropathy characterized by IgA immune complex deposition in the mesangium of the kidney, leading to significant proteinuria, glomerular hypercellularity, mesangioproliferative glomerular lesions, glomerular sclerosis and reduced kidney function, all hallmarks of human IgA nephropathy (J Am Soc Nephrol 23: 1364-1374, 2012). Consistent with human IgA nephropathy, the mesangial IgA deposits in the g-ddY mouse are also accompanied by deposition of IgG and complement C3.

[2] = 10 mg/kg/day, approximately 5 days

CCCCN(CCCC)C(=O)CN1C[C@H](c2ccc3c(c2)OCO3)[C@@H](C(=O)O)[C@@H]1c1ccc(OC)cc1 [Atrasentan, (2R,3R,4S)-4-(1,3-benzodioxol-5-yl)-1-[2-(dibutylamino)-2-oxoethyl]-2-(4-methoxyphenyl)pyrrolidine-3-carboxylic acid]
HALLMARK_MYC_TARGETS_V2 NES ([1]; 20 mg/kg/day vs. control): 0.76
HALLMARK_MYOGENESIS NES ([1]; 20 mg/kg/day vs. control): −1.60
HALLMARK_NOTCH_SIGNALING NES ([1]; 20 mg/kg/day vs. control): 0.69
HALLMARK_OXIDATIVE_PHOSPHORYLATION NES ([1]; 20 mg/kg/day vs. control): 3.38
HALLMARK_P53_PATHWAY NES ([1]; 20 mg/kg/day vs. control): −1.3
HALLMARK_PANCREAS_BETA_CELLS NES ([1]; 20 mg/kg/day vs. control): 0.98
HALLMARK_PEROXISOME NES ([1]; 20 mg/kg/day vs. control): 1.88
HALLMARK_PI3K_AKT_MTOR SIGNALING NES ([1]; 20 mg/kg/day vs. control): −1.24
HALLMARK_PROTEIN_SECRETION NES ([1]; 20 mg/kg/day vs. control): 1.08
HALLMARK_REACTIVE_OXYGEN_SPECIES_PATHWAY NES ([1]; 20 mg/kg/day vs. control): 1.61
HALLMARK_SPERMATOGENESIS NES ([1]; 20 mg/kg/day vs. control): 1.17
HALLMARK_TGF_BETA_SIGNALING NES ([1]; 20 mg/kg/day vs. control): −1.96
HALLMARK_TNFA_SIGNALING_VIA_NFKB NES ([1]; 20 mg/kg/day vs. control): −3.06
HALLMARK_UNFOLDED_PROTEIN_RESPONSE NES ([1]; 20 mg/kg/day vs. control): −0.64
HALLMARK_UV_RESPONSE_DN NES ([1]; 20 mg/kg/day vs. control): −2.36
HALLMARK_UV_RESPONSE_UP NES ([1]; 20 mg/kg/day vs. control): 1.15
HALLMARK_WNT_BETA_CATENIN_SIGNALING NES ([1]; 20 mg/kg/day vs. control): −1.57
HALLMARK_XENOBIOTIC_METABOLISM NES ([1]; 20 mg/kg/day vs. control): 2.16
cell proliferation associated signaling (mitotic spindle and G2M checkpoint) ([1]; 30 mg/kg/day): reduced
inflammatory response signaling ([1]; 30 mg/kg/day): reduced
HALLMARK_ADIPOGENESIS NES ([1]; 30 mg/kg/day vs. control): 2.64
HALLMARK_ALLOGRAFT_REJECTION NES ([1]; 30 mg/kg/day vs. control): −2.12
HALLMARK_ANDROGEN_RESPONSE NES ([1]; 30 mg/kg/day vs. control): 0.92
HALLMARK_ANGIOGENESIS NES ([1]; 30 mg/kg/day vs. control): −1.86
HALLMARK_APICAL_JUNCTION NES ([1]; 30 mg/kg/day vs. control): −2.00
HALLMARK_APICAL_SURFACE NES ([1]; 30 mg/kg/day vs. control): −1.65
HALLMARK_APOPTOSIS NES ([1]; 30 mg/kg/day vs. control): −1.52
HALLMARK_BILE_ACID_METABOLISM NES ([1]; 30 mg/kg/day vs. control): 2.40
HALLMARK_CHOLESTEROL_HOMEOSTASIS NES ([1]; 30 mg/kg/day vs. control): 1.14
HALLMARK_COAGULATION NES ([1]; 30 mg/kg/day vs. control): −1.56
HALLMARK_COMPLEMENT NES ([1]; 30 mg/kg/day vs. control): −1.56
HALLMARK_DNA_REPAIR NES ([1]; 30 mg/kg/day vs. control): 1.52
HALLMARK_E2F_TARGETS NES ([1]; 30 mg/kg/day vs. control): −1.46
HALLMARK_EPITHELIAL_MESENCHYMAL_TRANSITION NES ([1]; 30 mg/kg/day vs. control): −2.60
HALLMARK_ESTROGEN_RESPONSE_EARLY NES ([1]; 30 mg/kg/day vs. control): −1.22
HALLMARK_ESTROGEN_RESPONSE_LATE NES ([1]; 30 mg/kg/day vs. control): 1.16
HALLMARK_FATTY_ACID_METABOLISM NES ([1]; 30 mg/kg/day vs. control): 2.90
HALLMARK_G2M_CHECKPOINT NES ([1]; 30 mg/kg/day vs. control): −1.92
HALLMARK_GLYCOLYSIS NES ([1]; 30 mg/kg/day vs. control): 1.96
HALLMARK_HEDGEHOG_SIGNALING NES ([1]; 30 mg/kg/day vs. control): −1.94
HALLMARK_HEME_METABOLISM NES ([1]; 30 mg/kg/day vs. control): 1.99
HALLMARK_HYPOXIA NES ([1]; 30 mg/kg/day vs. control): −1.18
HALLMARK_IL2_STAT5_SIGNALING NES ([1]; 30 mg/kg/day vs. control): −1.56
HALLMARK_IL6_JAK_STAT3_SIGNALING NES ([1]; 30 mg/kg/day vs. control): −2.33
HALLMARK_INFLAMMATORY_RESPONSE NES ([1]; 30 mg/kg/day vs. control): −2.40
HALLMARK_INTERFERON_ALPHA_RESPONSE NES ([1]; 30 mg/kg/day vs. control): −1.80
HALLMARK_INTERFERON_GAMMA_RESPONSE NES ([1]; 30 mg/kg/day vs. control): −2.26
HALLMARK_KRAS_SIGNALING_DN NES ([1]; 30 mg/kg/day vs. control): −1.12
HALLMARK_KRAS_SIGNALING_UP NES ([1]; 30 mg/kg/day vs. control): −2.31
HALLMARK_M ITOTIC_SPINDLE NES ([1]; 30 mg/kg/day vs. control): −2.02
HALLMARK_MTORC1_SIGNALING NES ([1]; 30 mg/kg/day vs. control): 1.81
HALLMARK_MYC_TARGETS_V1 NES ([1]; 30 mg/kg/day vs. control): 1.26
HALLMARK_MYC_TARGETS_V2 NES ([1]; 30 mg/kg/day vs. control): 0.92
HALLMARK_MYOGENESIS NES ([1]; 30 mg/kg/day vs. control): −1.30
HALLMARK_NOTCH_SIGNALING NES ([1]; 30 mg/kg/day vs. control): −1.15
HALLMARK_OXIDATIVE_PHOSPHORYLATION NES ([1]; 30 mg/kg/day vs. control): 3.69
HALLMARK_P53_PATHWAY NES ([1]; 30 mg/kg/day vs. control): 1.10
HALLMARK_PANCREAS_BETA_CELLS NES ([1]; 30 mg/kg/day vs. control): 1.07
HALLMARK_PEROXISOME NES ([1]; 30 mg/kg/day vs. control): 2.39
HALLMARK_PI3K_AKT_MTOR SIGNALING NES ([1]; 30 mg/kg/day vs. control): 0.83
HALLMARK_PROTEIN_SECRETION NES ([1]; 30 mg/kg/day vs. control): 1.73
HALLMARK_REACTIVE_OXYGEN_SPECIES_PATHWAY NES ([1]; 30 mg/kg/day vs. control): 1.98
HALLMARK_SPERMATOGENESIS NES ([1]; 30 mg/kg/day vs. control): 1.21
HALLMARK_TGF_BETA_SIGNALING NES ([1]; 30 mg/kg/day vs. control): −1.55
HALLMARK_TNFA_SIGNALING_VIA_NFKB NES ([1]; 30 mg/kg/day vs. control): −2.63
HALLMARK_UNFOLDED_PROTEIN_RESPONSE NES ([1]; 30 mg/kg/day vs. control): 0.78
HALLMARK_UV_RESPONSE_DN NES ([1]; 30 mg/kg/day vs. control): −2.39
HALLMARK_UV_RESPONSE_UP NES ([1]; 30 mg/kg/day vs. control): 1.63
HALLMARK_WNT_BETA_CATENIN_SIGNALING NES ([1]; 30 mg/kg/day vs. control): −1.63
HALLMARK_XENOBIOTIC_METABOLISM NES ([1]; 30 mg/kg/day vs. control): 2.38
hallmark gene set enrichment in HRMC model (ET-1 stimulated HRMC): under-expression of hallmark gene sets
mice with reduced albuminuria (g-ddY mice; 10 mg/kg/day group): ⅔
reduction of UACR from baseline (g-ddY mice; 10 mg/kg/day in drinking water, approximately 5 days): 28±44%
albuminuria vs baseline (paired t-test) (g-ddY mice; [2]): not significantly changed from baseline
effect on UACR compared to control group (un-paired t-test) (g-ddY mice; [2]): not significant
reduction of UACR from baseline (g-ddY mice; 20 mg/kg/day in drinking water, approximately 5 days): 62±8%
effect on UACR compared to control group (un-paired t-test) (g-ddY mice; 20 mg/kg/day, approximately 5 days, P=0.0498): statistically significant compared to the control group; also recorded: significantly reduced albuminuria
albuminuria vs baseline (paired t-test) (g-ddY mice; 20 mg/kg/day, approximately 5 days, P=0.0593): reduced from baseline to a similar extent
reduction of UACR from baseline (g-ddY mice; 30 mg/kg/day in drinking water, approximately 5 days): 63±6%
albuminuria vs baseline (paired t-test) (g-ddY mice; 30 mg/kg/day, approximately 5 days): significantly (P=0.0002, paired two-sided t-test) reduced albuminuria from baseline
effect on UACR compared to control group (un-paired t-test) (g-ddY mice; 30 mg/kg/day, approximately 5 days, P=0.029): statistically significant compared to the control group; also recorded: significantly reduced albuminuria
magnitude of albuminuria lowering (reduction from baseline) (g-ddY mice; 20 and 30 mg/kg/day, approximately 5 days): > 60%
